{
  "source": "patent US8741940B2",
  "about": "“Microbicidal composition” (Rohm and Haas Company, priority 2005, dated 2014)",
  "assay_type_in_all_cases": "cell-based",
  "parameters_in_all_cases": "key to SI (synergy index): SI = Qa/QA + Qb/QB; >1 antagonism, lower SI = greater synergy",
  "key": {"[1]": {"tested_on": "Escherichia coli (E. coli—ATCC #8739)", "assay": "Synergy test, microtiter plate high resolution MIC assay, bacterium in M9GY medium", "details": "for Qb (concentration of second component producing the end point, MIC): alone where Qa = 0, otherwise in the mixture; for SI: E. coli 8739 - M9GY", "experimental": "(§1) When the sum of Qa/QA and Qb/QB is greater than one, antagonism is indicated. […] The lower the SI, the greater the synergy shown by that particular mixture. The minimum inhibitory concentration (MIC) of a microbicide is the lowest concentration tested under a specific set of conditions that prevents the growth of added microorganisms.\n(§2) Synergy tests were conducted using standard microtiter plate assays with media designed for optimal growth of the test microorganism. Minimal salt medium supplemented with 0.2% glucose and 0.1% yeast extract (M9GY medium) was used for testing bacteria; Potato Dextrose Broth (PDB medium) was used for testing yeast and mold. In this method, a wide range of combinations of microbicides and other personal care raw materials was tested by conducting high resolution MIC assays in the presence of various concentrations of BBIT or MBIT. High resolution MICs were determined by adding varying amounts of microbicide to one column of a microtitre plate and doing subsequent […] dilutions using an automated liquid handling system to obtain a series of endpoints ranging from 2 ppm to 10,000 ppm active ingredient.\n(§3) The bacteria were used at a concentration of about 5 ×10^6 bacteria per mL and the yeast and mold at 5×10^5 fungi per mL. These microorganisms are representative of natural contaminants in many consumer and industrial applications. […] (yeast and mold) or 30° C. (bacteria).\n(§4) In each test, First Component (A) was BBIT and the Second Component (B) was the other commercial microbicide.\n(§5) In each test, First Component (A) was MBIT and the Second Component (B) was the other commercial microbicide."}, "[2]": {"tested_on": "Candida albicans (C. albicans—ATCC 10231)", "assay": "Synergy test, microtiter plate high resolution MIC assay, yeast in PDB medium", "details": "for Qb (concentration of second component producing the end point, MIC): alone where Qa = 0, otherwise in the mixture; for SI: C. albicans 10231 - PDB", "experimental": "as §1, §2, §3, §4, §5"}, "[3]": {"tested_on": "Aspergillus niger (A. niger—ATCC 16404)", "assay": "Synergy test, microtiter plate high resolution MIC assay, mold in PDB medium", "details": "for Qb (concentration of second component producing the end point, MIC): alone where Qa = 0, otherwise in the mixture; for SI: A. niger 16404 - PDB", "experimental": "as §1, §2, §3, §4, §5"}, "[4]": {"details": "C. albicans 10231, PDB, 24 hours"}},
  "note": "Read-outs that look alike come from different tables or passages of the source.",
  "data": [
    {"substance": "Zinc pyrithione", "values": [
      {"measurement": "Qb (concentration of Second Component B = Zinc pyrithione at the end point)", "setting": "[1]", "value": 2},
      {"measurement": "SI (synergy index)", "setting": "[1]", "value": 1.00},
      {"measurement": "Qb (concentration of Second Component B = Zinc pyrithione at the end point)", "setting": "[2]", "value": 30},
      {"measurement": "SI (synergy index)", "setting": "[2]", "value": 1.00},
      {"measurement": "Qb (concentration of Second Component B = Zinc pyrithione at the end point)", "setting": "[3]", "value": 20},
      {"measurement": "SI (synergy index)", "setting": "[3]", "value": 1.00}
    ]},
    {"substance": "cocamidopropyl PG-dimonium chloride phosphate", "values": [
      {"measurement": "SI (synergy index)", "setting": "[1]; E. coli 8739, M9GY, 48 hours", "value": 1.00},
      {"measurement": "Qb (concentration of second component producing the end point, MIC)", "setting": "[1]; E. coli 8739, M9GY, 48 hours", "value": 100, "unit": "ppm"},
      {"measurement": "SI", "setting": "[1]; 72 hours, BBIT with Phospholipid PTC", "value": 1.00},
      {"measurement": "SI (synergy index)", "setting": "[2]; [4]", "value": 1.00},
      {"measurement": "Qb (concentration of second component producing the end point, MIC)", "setting": "[2]; [4]", "value": 1000, "unit": "ppm"},
      {"measurement": "SI", "setting": "[2]; 24 hours, BBIT with Phospholipid PTC", "value": 1.00},
      {"measurement": "SI (synergy index)", "setting": "[3]; A. niger 16404, PDB, 4 days", "value": 1.00},
      {"measurement": "Qb (concentration of second component producing the end point, MIC)", "setting": "[3]; A. niger 16404, PDB, 4 days", "value": 1000, "unit": "ppm"},
      {"measurement": "SI", "setting": "[3]; 3 days, BBIT with Phospholipid PTC", "value": 1.00}
    ]},
    {"substance": "linoleamidopropyl PG-dimonium chloride phosphate", "values": [
      {"measurement": "SI (synergy index)", "setting": "[1]; E. coli 8739, M9GY, 48 hours", "value": 1.00},
      {"measurement": "Qb (concentration of second component producing the end point, MIC)", "setting": "[1]; E. coli 8739, M9GY, 48 hours", "value": 500, "unit": "ppm"},
      {"measurement": "SI", "setting": "[1]; 48 hours, BBIT with Phospholipid EFA", "value": 1.00},
      {"measurement": "SI (synergy index)", "setting": "[2]; [4]", "value": 1.00},
      {"measurement": "Qb (concentration of second component producing the end point, MIC)", "setting": "[2]; [4]", "value": 1000, "unit": "ppm"},
      {"measurement": "SI", "setting": "[2]; 24 hours, BBIT with Phospholipid EFA", "value": 1.00},
      {"measurement": "SI (synergy index)", "setting": "[3]; A. niger 16404, PDB, 3 days", "value": 1.00},
      {"measurement": "Qb (concentration of second component producing the end point, MIC)", "setting": "[3]; A. niger 16404, PDB, 3 days", "value": 2000, "unit": "ppm"},
      {"measurement": "SI", "setting": "[3]; 4 days, BBIT with Phospholipid EFA", "value": 1.00}
    ]}
  ]
}
